Drawing on US10308644B2, “Heterocyclic compounds as immunomodulators” (Incyte Corporation, priority 2016, dated 2019), this text covers IC50 for 21 molecules.

One may read the IC50 as the concentration at which inhibition is half-maximal.

In this assay the target is PD-1/PD-L1 (Homo sapiens (Human), UniProt Q9NZQ7). The experiment in a line: PD-1/PD-L1 Homogeneous Time-Resolved Fluorescence (HTRF) Binding Assay. The following applies: recombinant human PD-1 (3 nM) and PD-L1 (10 nM), 25° C., PBS pH 7.4. The gist of the method: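 Fc-tagged human PD-1 (25-167, 3 nM) and His-tagged PD-L1 (19-238, 10 nM) preincubated with inhibitor 40 min in PBS pH 7.4, 0.05% Tween-20, 0.1% BSA, 1% DMSO, 25 °C. Binding detected by HTRF (Eu anti-IgG/APC anti-His, 665/620 nm) after 60 min; IC50 from percent control activity.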
Chain of PD-1/PD-L1 (Q9NZQ7 19-238): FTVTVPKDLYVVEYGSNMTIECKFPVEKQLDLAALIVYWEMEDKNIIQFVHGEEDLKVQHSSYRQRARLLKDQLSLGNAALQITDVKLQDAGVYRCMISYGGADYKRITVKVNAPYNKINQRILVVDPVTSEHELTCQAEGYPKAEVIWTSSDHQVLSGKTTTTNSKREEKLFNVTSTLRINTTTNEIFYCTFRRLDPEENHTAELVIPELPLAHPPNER

On to `Cc1c(-c2nc3cc(CN4CC[C@@H](C(=O)O)C4)cc(C#N)c3o2)cccc1-c1cccc(-c2nc3c(s2)CN(C(=O)CNC(C)C)C3)c1C` [Example 110, (R)-1-((7-cyano-2-(3′-(5-(2-(isopropylamino)acetyl)-5,6-dihydro-4H-pyrrolo[3,4-d]thiazol-2-yl)-2,2′-dimethylbiphenyl-3-yl)benzo[d]oxazol-5-yl)methyl)pyrrolidine-3-carboxylic acid], for which the IC50 is at most 10 nM.
In the case of `Cc1c(Nc2nccc3cc(CN[C@H](C)CO)cnc23)cccc1-c1cccc(-c2nc3cc(CN4CC[C@@](C)(C(=O)O)C4)cc(C#N)c3o2)c1C` [Example 196, (R)-1-((7-cyano-2-(3′-(3-(((R)-1-hydroxypropan-2-ylamino)methyl)-1,7-naphthyridin-8-ylamino)-2,2′-dimethylbiphenyl-3-yl)benzo[d]oxazol-5-yl)methyl)-3-methylpyrrolidine-3-carboxylic acid] it was at most 10 nM; in that of `Cc1c(-c2nc3c(o2)CN(C(=O)CN2CCN(C)CC2)C3)cccc1-c1cccc(-c2nc3cc(CN4CC5CC4CC5C(=O)O)cc(C#N)c3o2)c1C` (stereo not drawn) [Example 253, 2-((7-cyano-2-(2,2′-dimethyl-3,-(5-(2-(4-methylpiperazin-1-yl)acetyl)-5,6-dihydro-4H-pyrrolo[3,4-d]oxazol-2-yl)-[1,1′-biphenyl]-3-yl)benzo[d]oxazol-5-yl)methyl)-2-azabicyclo[2.2.1]heptane-5-carboxylic acid], at most 10 nM; in that of `Cc1c(-c2nc3cc(CN4CCCC[C@H]4C(=O)O)cc(C#N)c3o2)cccc1-c1cccc(NC(=O)c2nc3c(n2C)CCN(C)C3)c1Cl` [Example 52, (S)-1-((2-(2′-chloro-3′-(1,5-dimethyl-4,5,6,7-tetrahydro-1H-imidazo[4,5-c]pyridine-2-carboxamido)-2-methylbiphenyl-3-yl)-7-cyanobenzo[d]oxazol-5-yl)methyl)piperidine-2-carboxylic acid], at most 10 nM.
Then `Cc1c(Nc2nccn3c(CN4CC[C@H](O)C4)cnc23)cccc1-c1cccc(-c2nc3cc(CN4CC[C@H](C(=O)O)C4)cc(C#N)c3o2)c1C` [Example 152, (S)-1-((7-cyano-2-(3′-(3-(((S)-3-hydroxypyrrolidin-1-yl)methyl)imidazo[1,2-a]pyrazin-8-ylamino)-2,2′-dimethylbiphenyl-3-yl)benzo[d]oxazol-5-yl)methyl)pyrrolidine-3-carboxylic acid], with at most 10 nM; and `Cc1c(COc2cc(OCc3cncc(C#N)c3)c(CN3CCCC[C@H]3C(=O)O)cc2Cl)cccc1-c1cccc(-c2nc3cc(CN4CC[C@@H](C(=O)O)C4)cc(Cl)c3o2)c1C` [Example 149, (S)-1-(4-((3′-(5-(((R)-3-carboxypyrrolidin-1-yl)methyl)-7-chlorobenzo[d]oxazol-2-yl)-2,2′-dimethyl-[1,1′-biphenyl]-3-yl)methoxy)-5-chloro-2-((5-cyanopyridin-3-yl)methoxy)benzyl)piperidine-2-carboxylic acid], with 10 to 100 nM; and `Cc1c(Nc2nccc3cc(C(C)N4CC[C@@H](O)C4)cnc23)cccc1-c1cccc(-c2nc3cc(CN4CC[C@@H](C(=O)O)C4)cc(C#N)c3o2)c1C` (stereo partly drawn) [Example 140, (3R)-1-((7-cyano-2-(3′-(3-(1-((R)-3-hydroxypyrrolidin-1-yl)ethyl)-1,7-naphthyridin-8-ylamino)-2,2′-dimethylbiphenyl-3-yl)benzo[d]oxazol-5-yl)methyl)pyrrolidine-3-carboxylic acid], with at most 10 nM.
Consider `Cc1c(Nc2nccc3cc(CN4CC[C@@H](O)C4)cnc23)cccc1-c1cccc(-c2nc3cc(CN4CC[C@H](CC(=O)O)C4)cc(C#N)c3o2)c1C` [Example 173, 2-((R)-1-((7-cyano-2-(3′-(3-(((R)-3-hydroxypyrrolidin-1-yl)methyl)-1,7-naphthyridin-8-ylamino)-2,2′-dimethylbiphenyl-3-yl)benzo[d]oxazol-5-yl)methyl)pyrrolidin-3-yl)acetic acid], for which the concentration for half-maximal inhibition (IC50) was at most 10 nM.
In the case of `Cc1nc(CN2CC[C@H](O)C2)cnc1OCc1cccc(-c2cccc(-c3nc4cc(CN5CCC(C(=O)O)C5)cc(Cl)c4o3)c2C)c1Cl` (stereo partly drawn) [Example 153, 1-((7-chloro-2-(2′-chloro-3′-((5-(((S)-3-hydroxypyrrolidin-1-yl)methyl)-3-methylpyrazin-2-yloxy)methyl)-2-methylbiphenyl-3-yl)benzo[d]oxazol-5-yl)methyl)pyrrolidine-3-carboxylic acid] it was at most 10 nM.
In the case of `Cc1c(-c2nc3c(o2)CN(C(=O)CN(C)CCO)C3)cccc1-c1cccc(-c2nc3cc(CN4CC[C@@](C)(C(=O)O)C4)cc(C#N)c3o2)c1C` [Example 252, (R)-1-((7-cyano-2-(3′-(5-(N-(2-hydroxyethyl)-N-methylglycyl)-5,6-dihydro-4H-pyrrolo[3,4-d]oxazol-2 yl)-2,2'-dimethyl-[1,1′-biphenyl]-3-yl)benzo[d]oxazol-5-yl)methyl)-3-methylpyrrolidine-3-carboxylic acid] it was at most 10 nM; in that of `Cc1c(Nc2nccc3cc(CN4CC[C@@H](O)C4)cnc23)cccc1-c1cccc(-c2nc3cc(CNCCc4ccc(C(=O)O)cc4)cc(C#N)c3o2)c1C` [Example 171, (R)-4-(2-((7-cyano-2-(3′-(3-((3-hydroxypyrrolidin-1-yl)methyl)-1,7-naphthyridin-8-ylamino)-2,2′-dimethylbiphenyl-3-yl)benzo[d]oxazol-5-yl)methylamino)ethyl)benzoic acid], at most 10 nM; in that of `Cc1c(Nc2nccc3cc(CN4CC[C@@H](O)C4)cnc23)cccc1-c1cccc(-c2nc3cc(CN[C@H]4CC[C@@H](C(=O)O)CC4)cc(C#N)c3o2)c1C` [Example 172, cis-4-((7-cyano-2-(3′-(3-(((R)-3-hydroxypyrrolidin-1-yl)methyl)-1,7-naphthyridin-8-ylamino)-2,2′-dimethylbiphenyl-3-yl)benzo[d]oxazol-5-yl)methylamino) cyclohexanecarboxylic acid], at most 10 nM.
Take `Cc1c(Nc2ncnc3cccnc23)cccc1-c1cccc(-c2nc3cc(CN4CC[C@@H](C(=O)O)C4)cc(C#N)c3o2)c1C` [Example 13, (R)-1-((7-cyano-2-(2,2′-dimethyl-3′-(pyrido[3,2-d]pyrimidin-4-ylamino)biphenyl-3-yl)benzo[d]oxazol-5-yl)methyl)pyrrolidine-3-carboxylic acid]: the IC50 was at most 10 nM.
Then `Cc1c(Nc2nccc3cc(C4CCCN4)cnc23)cccc1-c1cccc(-c2nc3cc(CN4CC[C@@H](C(=O)O)C4)cc(C#N)c3o2)c1C` (single isomer, unassigned) [Example 99], with at most 10 nM.
In the case of `Cc1c(Nc2nccc3cc(CNC[C@H](C)O)cnc23)cccc1-c1cccc(-c2nc3cc(CN4CC[C@@H](C(=O)O)C4)cc(C#N)c3o2)c1C` [Example 146, (R)-1-((7-cyano-2-(3′-((3-((((S)-2-hydroxypropyl)amino)methyl)-1,7-naphthyridin-8-yl)amino)-2,2′-dimethyl-[1,1′-biphenyl]-3-yl)benzo[d]oxazol-5-yl)methyl)pyrrolidine-3-carboxylic acid] it was at most 10 nM; in that of `Cc1c(Nc2nccc3cc(CN4CC[C@@H](O)C4)cnc23)cccc1-c1cccc(-c2nc3cc(CN4CC[C@@](C)(C(=O)O)C4)cc(C#N)c3o2)c1C` [Example 100, (R)-1-((7-cyano-2-(3′-(3-(((R)-3-hydroxypyrrolidin-1-yl)methyl)-1,7-naphthyridin-8-ylamino)-2,2′-dimethylbiphenyl-3-yl)benzo[d]oxazol-5-yl)methyl)-3-methylpyrrolidine-3-carboxylic acid], at most 10 nM; in that of `Cc1c(-c2nc3cc(CN4CCC(C(=O)O)CC4)cc(C#N)c3o2)cccc1-c1cccc(NC(=O)c2nc3c(n2C)CC(C)N(C)C3)c1Cl` (stereo not drawn) [Example 162, 1-((2-(2′-chloro-2-methyl-3′-(1,5,6-trimethyl-4,5,6,7-tetrahydro-1H-imidazo[4,5-c]pyridine-2-carboxamido)biphenyl-3-yl)-7-cyanobenzo[d]oxazol-5-yl)methyl)piperidine-4-carboxylic acid], at most 10 nM.
Then `Cc1c(Nc2nccc3cc(CN4CC[C@](C)(O)C4)cnc23)cccc1-c1cccc(-c2nc3cc(CN4CC[C@@](C)(C(=O)O)C4)cc(C#N)c3o2)c1C` [Example 200, (R)-1-((7-cyano-2-(3′-(3-(((S)-3-hydroxy-3-methylpyrrolidin-1-yl)methyl)-1,7-naphthyridin-8-ylamino)-2,2′-dimethylbiphenyl-3-yl)benzo[d]oxazol-5-yl)methyl)-3-methylpyrrolidine-3-carboxylic acid], with at most 10 nM; and `Cc1c(Nc2nccc3cc(CNCC4(O)CC4)cnc23)cccc1-c1cccc(-c2nc3cc(CN4CC[C@@](C)(C(=O)O)C4)cc(C#N)c3o2)c1C` [Example 199, (R)-1-((7-cyano-2-(3′-(3-(((1-hydroxycyclopropyl)methylamino)methyl)-1,7-naphthyridin-8-ylamino)-2,2′-dimethylbiphenyl-3-yl)benzo[d]oxazol-5-yl)methyl)-3-methylpyrrolidine-3-carboxylic acid], with at most 10 nM.
Turning to `Cc1c(-c2nc3cc(CN4CCC(C(=O)O)CC4)cc(C#N)c3o2)cccc1-c1cccc(NC(=O)c2nc3c(n2C)CC(C)NC3)c1Cl` (stereo not drawn) [Example 164, 1-((2-(2′-chloro-3′-(1,6-dimethyl-4,5,6,7-tetrahydro-1H-imidazo[4,5-c]pyridine-2-carboxamido)-2-methylbiphenyl-3-yl)-7-cyanobenzo[d]oxazol-5-yl)methyl)piperidine-4-carboxylic acid], the IC50 is at most 10 nM.
Then `Cc1c(Nc2nccc3cc(CN4CC[C@@H](O)C4)cnc23)cccc1-c1cccc(-c2nc3cc(CN4CC[C@H](C(=O)O)C4)cc(Cl)c3o2)c1C` [Example 19, (S)-1-((7-chloro-2-(3′-(3-(((R)-3-hydroxypyrrolidin-1-yl)methyl)-1,7-naphthyridin-8-ylamino)-2,2′-dimethylbiphenyl-3-yl)benzo[d]oxazol-5-yl)methyl)pyrrolidine-3-carboxylic acid], with at most 10 nM.
